Molecular target: HCV NS3-4A serine protease (full-length NS3-4A protein) (Hepatitis C virus genotype 1a (isolate 1) (HCV), UniProt P26664)
Assay: HCV NS3-4A protease assay
Assay type: biochemical, HCV genotype 1a
Details: strain HCV-1, fluorogenic peptide substrate, read-out: Protease assay Ex. 12 IC50
Description: The inhibitory activity of certain compounds of Table A against HCV NS3-4A serine protease is determined in a homogenous assay using the full-length NS3-4A protein (genotype 1a, strain HCV-1) and a commercially available internally-quenched fluorogenic peptide substrate as described by Taliani, M., et al. 1996 Anal. Biochem. 240:60-67, which is incorporated by reference in its entirety.

Chain of HCV NS3-4A serine protease (full-length NS3-4A protein) (P26664 1027-1657): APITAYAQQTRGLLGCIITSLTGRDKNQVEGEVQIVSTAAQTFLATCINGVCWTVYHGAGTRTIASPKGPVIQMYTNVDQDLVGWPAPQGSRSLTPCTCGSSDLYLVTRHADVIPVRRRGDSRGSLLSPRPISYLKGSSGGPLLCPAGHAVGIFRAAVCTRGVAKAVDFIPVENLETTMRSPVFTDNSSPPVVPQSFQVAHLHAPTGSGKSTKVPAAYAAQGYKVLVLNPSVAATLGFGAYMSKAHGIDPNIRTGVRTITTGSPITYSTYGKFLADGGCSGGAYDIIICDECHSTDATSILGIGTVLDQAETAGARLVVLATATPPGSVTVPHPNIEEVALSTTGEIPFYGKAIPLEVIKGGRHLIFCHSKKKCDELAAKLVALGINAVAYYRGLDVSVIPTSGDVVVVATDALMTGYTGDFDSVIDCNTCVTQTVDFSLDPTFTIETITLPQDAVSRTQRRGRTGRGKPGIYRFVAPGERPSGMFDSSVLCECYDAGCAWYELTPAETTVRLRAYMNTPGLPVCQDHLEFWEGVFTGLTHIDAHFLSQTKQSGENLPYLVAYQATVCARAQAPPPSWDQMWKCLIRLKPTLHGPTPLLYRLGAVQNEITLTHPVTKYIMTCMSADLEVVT
Chain of HCV NS3-4A serine protease (full-length NS3-4A protein) (P26664 1658-1711 partner): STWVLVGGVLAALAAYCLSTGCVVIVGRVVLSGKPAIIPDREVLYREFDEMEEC

Structure (SMILES) | IC50 [nM]
C=C[C@@H]1C[C@]1(NC(=O)[C@@H]1C[C@@]2(CN1C(=O)[C@@H](NC(=O)[C@@H](NC(=O)[C@@H]1CCCN(CC)C1)C(C)(C)C)C(C)(C)C)C(C)(C)C21CCC1)C(=O)NS(=O)(=O)N1CCCC1 [Compound 4, (5R,8S)-7-[(2S)-2-{[(2S)-2-({[(3R)-1-ethylpiperidin-3-yl]carbonyl}amino)-3,3-dimethylbutanoyl]amino}-3,3-dimethylbutanoyl]-10,10-dimethyl-N-{(1R,2S)-1-[(pyrrolidin-1-ylsulfonyl)carbamoyl]-2-vinylcyclopropyl}-7-azadispiro[3.0.4.1]decane-8-carboxamide] | 35
C=C[C@@H]1C[C@]1(NC(=O)[C@@H]1C[C@@]2(CN1C(=O)[C@@H](NC(=O)[C@@H](NC(=O)c1cnccn1)C1CCCCC1)C(C)(C)C)C(C)(C)C21CCC1)C(=O)NS(=O)(=O)N(C)CC [Compound 167, (5R,8S)-7-[(2S)-2-({(2S)-2-cyclohexyl-2-[(pyrazin-2-ylcarbonyl)amino]acetyl}amino)-3,3-dimethylbutanoyl]-N-[(1R,2S)-1-({[ethyl(methyl)amino]sulfonyl}carbamoyl)-2-vinylcyclopropyl]-10,10-dimethyl-7-azadispiro[3.0.4.1]decane-8-carboxamide] | 0.6
C=C[C@@H]1C[C@]1(NC(=O)[C@@H]1C[C@@]2(CN1C(=O)[C@@H](NC(=O)[C@@H](NC(=O)c1cnccn1)C1CCCCC1)C1CCOCC1)C(C)(C)C21CCC1)C(=O)NS(=O)(=O)N1CCCC1 [Compound 42, (5R,8S)-7-[(2S)-2-({(2S)-2-cyclohexyl-2-[(pyrazin-2-ylcarbonyl)amino]acetyl}amino)-2-(tetrahydro-2H-pyran-4-yl)acetyl]-10,10-dimethyl-N-{(1R,2S)-1-[(pyrrolidin-1-ylsulfonyl)carbamoyl]-2-vinylcyclopropyl}-7-azadispiro[3.0.4.1]decane-8-carboxamide] | 40
C=C[C@@H]1C[C@]1(NC(=O)[C@@H]1C[C@@]2(CN1C(=O)[C@@H](NC(=O)[C@@H](NC(=O)c1cnccn1)C1CCCCC1)C(C)(C)C)C(C)(C)C21CCC1)C(=O)NS(=O)(=O)N(CC)CC [Compound 173, (5R,8S)-7-[(2S)-2-({(2S)-2-cyclohexyl-2-[(pyrazin-2-ylcarbonyl)amino]acetyl}amino)-3,3-dimethylbutanoyl]-N-[(1R,2S)-1-{[(diethylamino)sulfonyl]carbamoyl}-2-vinylcyclopropyl]-10,10-dimethyl-7-azadispiro[3.0.4.1]decane-8-carboxamide] | 3
C=C[C@@H]1C[C@]1(NC(=O)[C@@H]1C[C@@]2(CN1C(=O)[C@@H](NC(=O)[C@@H](NC(=O)[C@H]1CCN1C(C)C)C1CCCCC1)C(C)(C)C)C(C)(C)C21CCC1)C(=O)NS(=O)(=O)N1CCCC1 [Compound 18, (5R,8S)-7-[(2S)-2-{[(2S)-2-cyclohexyl-2-({[(2R)-1-isopropylazetidin-2-yl]carbonyl}amino)acetyl]amino}-3,3-dimethylbutanoyl]-10,10-dimethyl-N-{(1R,2S)-1-[(pyrrolidin-1-ylsulfonyl)carbamoyl]-2-vinylcyclopropyl}-7-azadispiro[3.0.4.1]decane-8-carboxamide] | 10
C=C[C@@H]1C[C@]1(NC(=O)[C@@H]1C[C@@]2(CN1C(=O)[C@@H](NC(=O)[C@@H](NC(=O)[C@@H]1CCCN1CC)C1CCCCC1)C1CCOCC1)C(C)(C)C21CCC1)C(=O)NS(=O)(=O)N(CC)CC [Compound 96, (5R,8S)-7-[(2S)-2-{[(2S)-2-cyclohexyl-2-({[(2S)-1-ethylpyrrolidin-2-yl]carbonyl}amino)acetyl]amino}-2-(tetrahydro-2H-pyran-4-yl)acetyl]-N-[(1R,2S)-1-{[(diethylamino)sulfonyl]carbamoyl}-2-vinylcyclopropyl]-10,10-dimethyl-7-azadispiro[3.0.4.1]decane-8-carboxamide] | 7
C=C[C@@H]1C[C@]1(NC(=O)[C@@H]1C[C@@]2(CN1C(=O)[C@@H](NC(=O)[C@@H](NC(=O)[C@@H]1CCCN1CC)C1(C)CCCCC1)C1(C)CCCCC1)C(C)(C)C21CCC1)C(=O)NS(=O)(=O)N(CC)CC [Compound 159, (5R,8S)-N-[(1R,2S)-1-{[(diethylamino)sulfonyl]carbamoyl}-2-vinylcyclopropyl]-7-[(2S)-2-{[(2S)-2-({[(2S)-1-ethylpyrrolidin-2-yl]carbonyl}amino)-2-(1-methylcyclohexyl)acetyl]amino}-2-(1-methylcyclohexyl)acetyl]-10,10-dimethyl-7-azadispiro[3.0.4.1]decane-8-carboxamide] | 11
CC[C@@H]1C[C@]1(NC(=O)[C@@H]1C[C@@]2(CN1C(=O)[C@@H](NC(=O)[C@@H](NC(=O)[C@@H]1CCCCN1C(C)C)C1CCCCC1)C(C)(C)C)C(C)(C)C21CCC1)C(=O)NS(=O)(=O)N(C)C(C)C [Compound 141, (5R,8S)-7-[(2S)-2-{[(2S)-2-cyclohexyl-2-({[(2S)-1-isopropylpiperidin-2-yl]carbonyl}amino)acetyl]amino}-3,3-dimethylbutanoyl]-N-[(1R,2R)-2-ethyl-1-({[isopropyl(methyl)amino]sulfonyl}carbamoyl)cyclopropyl]-10,10-dimethyl-7-azadispiro[3.0.4.1]decane-8-carboxamide] | 8
C=C[C@@H]1C[C@]1(NC(=O)[C@@H]1C[C@@]2(CN1C(=O)[C@@H](NC(=O)[C@@H](NC(=O)[C@@H]1CCCN1C(C)C)C1CCCCC1)C(C)(C)C)C(C)(C)C21CCC1)C(=O)NS(=O)(=O)N1CCCC1 [Compound 15, (5R,8S)-7-[(2S)-2-{[(2S)-2-cyclohexyl-2-({[(2S)-1-isopropylpyrrolidin-2-yl]carbonyl}amino)acetyl]amino}-3,3-dimethylbutanoyl]-10,10-dimethyl-N-{(1R,2S)-1-[(pyrrolidin-1-ylsulfonyl)carbamoyl]-2-vinylcyclopropyl}-7-azadispiro[3.0.4.1]decane-8-carboxamide] | 2
C=C[C@@H]1C[C@]1(NC(=O)[C@@H]1C[C@@]2(CN1C(=O)[C@@H](NC(=O)[C@@H](NC(=O)[C@H]1CCCCN1C(C)C)C1CCCCC1)C(C)(C)C)C(C)(C)C21CCC1)C(=O)NS(=O)(=O)N(CC)C(C)C [Compound 120, (5R,8S)-7-[(2S)-2-{[(2S)-2-cyclohexyl-2-({[(2R)-1-isopropylpiperidin-2-yl]carbonyl}amino)acetyl]amino}-3,3-dimethylbutanoyl]-N-[(1R,2S)-1-({[ethyl(isopropyl)amino]sulfonyl}carbamoyl)-2-vinylcyclopropyl]-10,10-dimethyl-7-azadispiro[3.0.4.1]decane-8-carboxamide] | 10
C=C[C@@H]1C[C@]1(NC(=O)[C@@H]1C[C@@]2(CN1C(=O)[C@@H](NC(=O)[C@@H](NC(=O)[C@@H]1CCCCN1CC)C1CCCCC1)C1(C)CCOCC1)C(C)(C)C21CCC1)C(=O)NS(=O)(=O)N(CC)CC [Compound 151, (5R,8S)-7-[(2S)-2-{[(2S)-2-cyclohexyl-2-({[(2S)-1-ethylpiperidin-2-yl]carbonyl}amino)acetyl]amino}-2-(4-methyltetrahydro-2H-pyran-4-yl)acetyl]-N-[(1R,2S)-1-{[(diethylamino)sulfonyl]carbamoyl}-2-vinylcyclopropyl]-10,10-dimethyl-7-azadispiro[3.0.4.1]decane-8-carboxamide] | 2
C=C[C@@H]1C[C@]1(NC(=O)[C@@H]1C[C@@]2(CN1C(=O)[C@@H](NC(=O)[C@@H](NC(=O)[C@@H]1CC(F)(F)CN1C(C)C)C1CCCCC1)C(C)(C)C)C(C)(C)C21CCC1)C(=O)NS(=O)(=O)N1CCCC1 [Compound 89, (5R,8S)-7-[(2S)-2-{[(2S)-2-cyclohexyl-2-({[(2S)-4,4-difluoro-1-isopropylpyrrolidin-2-yl]carbonyl}amino)acetyl]amino}-3,3-dimethylbutanoyl]-10,10-dimethyl-N-{(1R,2S)-1-[(pyrrolidin-1-ylsulfonyl)carbamoyl]-2-vinylcyclopropyl}-7-azadispiro[3.0.4.1]decane-8-carboxamide] | 30
C=C[C@@H]1C[C@]1(NC(=O)[C@@H]1C[C@@]2(CN1C(=O)[C@@H](NC(=O)[C@@H](NC(=O)[C@@H]1CCCCN1C(C)C)C1CCCCC1)C(C)(C)C)C(C)(C)C21CCC1)C(=O)NS(=O)(=O)NC(C)(C)C [Compound 169, (5R,8S)-N-[(1R,2S)-1-{[(tert-butylamino)sulfonyl]carbamoyl}-2-vinylcyclopropyl]-7-[(2S)-2-{[(2S)-2-cyclohexyl-2-({[(2S)-1-isopropylpiperidin-2-yl]carbonyl}amino)acetyl]amino}-3,3-dimethylbutanoyl]-10,10-dimethyl-7-azadispiro[3.0.4.1]decane-8-carboxamide] | 1.5
C=C[C@@H]1C[C@]1(NC(=O)[C@@H]1C[C@@]2(CN1C(=O)[C@@H](NC(=O)[C@@H](NC(=O)[C@@H]1CCCCN1C(C)C)C1CCCCC1)C(C)(C)C)C(C)(C)C21CCC1)C(=O)NS(=O)(=O)N(CC)CCF [Compound 156, (5R,8S)-7-[(2S)-2-{[(2S)-2-cyclohexyl-2-({[(2S)-1-isopropylpiperidin-2-yl]carbonyl}amino)acetyl]amino}-3,3-dimethylbutanoyl]-N-[(1R,2S)-1-({[ethyl(2-fluoroethyl)amino]sulfonyl}carbamoyl)-2-vinylcyclopropyl]-10,10-dimethyl-7-azadispiro[3.0.4.1]decane-8-carboxamide] | 1.3
C=C[C@@H]1C[C@]1(NC(=O)[C@@H]1C[C@@]2(CN1C(=O)[C@@H](NC(=O)[C@@H](NC(=O)[C@@H]1CCCCN1C(C)C)C1CCCCC1)C(C)(C)C)C(C)(C)C21CCC1)C(=O)NS(=O)(=O)N(C)C(C)C [Compound 108, (5R,8S)-7-[(2S)-2-{[(2S)-2-cyclohexyl-2-({[(2S)-1-isopropylpiperidin-2-yl]carbonyl}amino)acetyl]amino}-3,3-dimethylbutanoyl]-N-[(1R,2S)-1-({[isopropyl(methyl)amino]sulfonyl}carbamoyl)-2-vinylcyclopropyl]-10,10-dimethyl-7-azadispiro[3.0.4.1]decane-8-carboxamide] | 6
